Measurements as given in ChEMBL document CHEMBL1938270, “Synthesis and antifungal activity of natural product-based 6-alkyl-2,3,4,5-tetrahydropyridines” (J Nat Prod, 2011).
Converted amounts (≈) assume the structure as drawn. The source made the active and inactive calls. No cut-off for these calls is given here.

Experiments:
Candida albicans [1] = experiment: Antifungal activity against Candida albicans ATCC 90028 at 20 ug/ml after 24 to 72 hrs by M27-A2 CLSI method; type: functional, organism-based
BT-549 = experiment: Cytotoxicity against human BT549 cells at 10 ug/ml by neutral red assay; type: cell-based
Vero = experiment: Cytotoxicity against african green monkey Vero cells at 10 ug/ml by neutral red assay; type: cell-based; settings: chlorocebus sabaeus
SK-OV-3 = experiment: Cytotoxicity against human SKOV3 cells at 10 ug/ml by neutral red assay; type: cell-based
Nakaseomyces glabratus [2] = experiment: Antifungal activity against Candida glabrata ATCC 90030 after 24 to 72 hrs by M27-A2 CLSI method; type: functional
KB = experiment: Cytotoxicity against human KB cells at 10 ug/ml by neutral red assay; type: cell-based
Cryptococcus neoformans [3] = experiment: Antifungal activity against Cryptococcus neoformans ATCC 90113 after 24 to 72 hrs by M27-A2 CLSI method; type: functional
LLC-PK1 = experiment: Cytotoxicity against pig LLC-PK1 cells at 10 ug/ml by neutral red assay; type: cell-based, Sus scrofa
SK-MEL = experiment: Cytotoxicity against human SK-MEL cells at 10 ug/ml by neutral red assay; type: cell-based
Pichia kudriavzevii [4] = experiment: Antifungal activity against Candida Krusei ATCC 6258 after 24 to 72 hrs by M27-A2 CLSI method; type: functional
Nakaseomyces glabratus [5] = experiment: Antifungal activity against Candida glabrata ATCC 90030 at 20 ug/ml after 24 to 72 hrs by M27-A2 CLSI method; type: functional, organism-based
Cryptococcus neoformans [6] = experiment: Antifungal activity against Cryptococcus neoformans ATCC 90113 at 20 ug/ml after 24 to 72 hrs by M27-A2 CLSI method; type: functional, organism-based
Aspergillus fumigatus [7] = experiment: Antifungal activity against Aspergillus fumigatus ATCC 204305 after 24 to 72 hrs by M27-A2 CLSI method; type: functional, organism-based
Aspergillus fumigatus [8] = experiment: Antifungal activity against Aspergillus fumigatus ATCC 204305 at 20 ug/ml after 24 to 72 hrs by M27-A2 CLSI method; type: functional, organism-based
Pichia kudriavzevii [9] = experiment: Antifungal activity against Candida Krusei ATCC 6258 at 20 ug/ml after 24 to 72 hrs by M27-A2 CLSI method; type: functional, organism-based
Candida albicans [10] = experiment: Antifungal activity against Candida albicans ATCC 90028 after 24 to 72 hrs by M27-A2 CLSI method; type: functional

Row | Structure (SMILES) | MIC (Candida albicans [1]) | Activity (BT-549) | Activity (Vero) | Activity (SK-OV-3) | MFC (Nakaseomyces glabratus [2]) [µg/mL] | MIC (Nakaseomyces glabratus [2]) [µg/mL] | Activity (KB) | MFC (Cryptococcus neoformans [3]) [µg/mL] | MIC (Cryptococcus neoformans [3]) [µg/mL] | Activity (LLC-PK1) | Activity (SK-MEL) | MFC (Pichia kudriavzevii [4]) [µg/mL] | MIC (Pichia kudriavzevii [4]) [µg/mL] | also measured
1 | CCCCCCCCCCCCCCCC1=NCCCC1 | inactive | Non-toxic | Non-toxic | Non-toxic | 15 (≈ 51.1 µM) | 10 (≈ 34.1 µM) | Non-toxic | 12.5 (≈ 42.6 µM) | 11.2 (≈ 38.2 µM) | Non-toxic | Non-toxic | 15 (≈ 51.1 µM) | 10 (≈ 34.1 µM) | 
2 | CCCCCCCCCCCCCCCCCC1=NCCCC1 | inactive | Non-toxic | Non-toxic | Non-toxic | 7.5 (≈ 23.3 µM) | 5 (≈ 15.5 µM) | Non-toxic | 3.8 (≈ 11.8 µM) | 2.5 (≈ 7.77 µM) | Non-toxic | Non-toxic | 15 (≈ 46.6 µM) | 15 (≈ 46.6 µM) | 
3 | CCCCCCCCCCCCCC1=NCCCC1 |  |  |  |  |  |  |  |  |  |  |  |  |  | Activity (Candida albicans [1]): inactive; Activity (Nakaseomyces glabratus [5]): inactive; Activity (Cryptococcus neoformans [6]): inactive; Activity (Aspergillus fumigatus [7]): inactive; Activity (Aspergillus fumigatus [8]): inactive
4 | CCCCCCCCCCCCCCCCCCC1=NCCCC1 | inactive | Non-toxic | Non-toxic | Non-toxic | 15 (≈ 44.7 µM) | 10 (≈ 29.8 µM) | Non-toxic | 15 (≈ 44.7 µM) | 10 (≈ 29.8 µM) | Non-toxic | Non-toxic |  |  | MIC (Pichia kudriavzevii [9]): inactive
5 | C[C@@H]1[C@H](O)[C@@H](C)/C=C/C=C/C=C/C=C/C=C/C=C/C=C/[C@H](O[C@@H]2O[C@H](C)[C@@H](O)[C@H](N)[C@@H]2O)C[C@@H]2O[C@](O)(C[C@@H](O)C[C@@H](O)[C@H](O)CC[C@@H](O)C[C@@H](O)CC(=O)O[C@H]1C)C[C@H](O)[C@H]2C(=O)O [AMPHOTERICIN B] |  |  |  |  | 0.94 (≈ 1.02 µM) | 0.63 (≈ 0.682 µM) |  | 0.47 (≈ 0.509 µM) | 0.47 (≈ 0.509 µM) |  |  | 1.25 (≈ 1.35 µM) | 1.25 (≈ 1.35 µM) | MIC (Candida albicans [10]): 0.47 µg/mL (≈ 0.509 µM)
6 | CCCCCCCCCCCCCCC1=NCCCC1 | inactive | Non-toxic | Non-toxic | Non-toxic |  |  | Non-toxic | 10 (≈ 35.8 µM) | 10 (≈ 35.8 µM) | Non-toxic | Non-toxic |  |  | MIC (Nakaseomyces glabratus [5]): inactive; MIC (Pichia kudriavzevii [9]): inactive
7 | CCCCCCCCCCCCCCCCC1=NCCCC1 |  | Non-toxic | Non-toxic | Non-toxic | 7.5 (≈ 24.4 µM) | 7.5 (≈ 24.4 µM) | Non-toxic | 3.8 (≈ 12.4 µM) | 3.8 (≈ 12.4 µM) | Non-toxic | Non-toxic | 7.5 (≈ 24.4 µM) | 7.5 (≈ 24.4 µM) | MFC (Candida albicans [10]): 15 µg/mL (≈ 48.8 µM); MIC (Candida albicans [10]): 15 µg/mL (≈ 48.8 µM)
8 | CCCCCCCCCCCCC1=NCCCC1 |  |  |  |  |  |  |  |  |  |  |  |  |  | Activity (Candida albicans [1]): inactive; Activity (Nakaseomyces glabratus [5]): inactive; Activity (Cryptococcus neoformans [6]): inactive; Activity (Aspergillus fumigatus [7]): inactive; Activity (Aspergillus fumigatus [8]): inactive
